# “And” between values parts separate entries of the source, which are not always exact repeats. Equal entries are not always repeated. Where two headings read alike, the source gives them in different places.
# Key:
# [1] = set-up: species or system Sprague-Dawley rats; conditions: rat, in vivo
# Experimental: Compounds were tested in Sprague-dawley rats (˜250 g). Defined doses were delivered as oral solutions in 0.5% sodium bicarbonate buffer with T3 sodium salt containing 12 mcgT3/kg or triiodothyronine composition containing the equivalent amount of T3. Rats were dosed immediately following 0 hour serum collection. Serum was collected from rats at 2, 4, 6, 9, 12 and 24 hours after capsule delivery. Total serum T3 concentrations were determined by ELISA using a commercially available kit (Total Triiodothyronine (total T3) ELISA KIT, product #1700, ALPHA DIAGNOSTIC, San Antonio, Tex.). Total serum T4 concentrations were determined by ELISA using a commercially available kit (Total Thyronine (Total T4) ELISA KIT, product #1100, ALPHA DIAGNOSTIC, San Antonio, Tex.).
# The general procedures described above were employed for the experimental data described below. These procedures are subject to minor variations in timing and weight of rats, etc.
# (§1) T3 sodium, G-T3, V-T3, I-T3, Y-T3, A2-T3, P2-T3, or F2-T3 were administered at equimolar doses to Sprague-Dawley rats (12 μg/kg T3; HED˜120 μg T3 sodium; n=6, per group) that were hypothyroid due to removal of the thyroid gland approximately one week prior to evaluation. Serum was collected at 0 (pre-dose), 1, 2, 4, 6, 8 and 12 hours post-dose and analyzed for total T3 and TSH by chemiluminescent immunoassay (Immulite CIA). […] At 1 hour post dose the mean level of Total T3 was 327.3, 429.5, 432.7, 403.3, 431, and 433.1 ng/ml for G-T3, V-T3, I-T3, Y-T3, P2-T3, and F2-T3 dosed animals respectively as compared to 577 ng/ml for T3 sodium dosed animals. Applicants note that some variation in these values may be present as with A2-T3 (FIGS. 15 and 16).
# TSH = experiment: Serum TSH after oral administration to hypothyroid rats (chemiluminescent immunoassay); type: in vivo, Sprague-Dawley rats
# Experimental: as §1
# [2] = 0 h (pre-dose), mean n=6, oral 12 μg/kg T3
# [3] = 1 h, mean n=6, oral 12 μg/kg T3
# [4] = 2 h, mean n=6, oral 12 μg/kg T3
# [5] = 4 h, mean n=6, oral 12 μg/kg T3
# [6] = 6 h, mean n=6, oral 12 μg/kg T3
# [7] = 8 h, mean n=6, oral 12 μg/kg T3
# [8] = 12 h, mean n=6, oral 12 μg/kg T3
SMILES,"Total T3 AUC, % (of T3) [1]","Total T3Δ dAUC, % (of T3) [1]","TSH, mean (TSH; [2])","TSH, mean (TSH; [3])","TSH, mean (TSH; [4])","TSH, mean (TSH; [5])","TSH, mean (TSH; [6])","TSH, mean (TSH; [7])","TSH, mean (TSH; [8])",TSH levels in response to administration (TSH; oral 12 μg/kg T3),Variability of T3 absorption compared with T3 sodium [1],mean level of Total T3 at 1 hour post dose ([1]; po),"Tmax, % T3 ([1]; Sprague-Dawley)","Total T3 AUC, % (of T3) ([1]; Sprague-Dawley)","Total T3 AUClast, % T3 ([1]; Sprague-Dawley)","Total T3 Cmax, % T3 ([1]; Sprague-Dawley)","Total T3Δ AUClast, % T3 ([1]; Sprague-Dawley)","Total T3Δ Cmax, % T3 ([1]; Sprague-Dawley)","Total T3Δ dAUC, % (of T3) ([1]; Sprague-Dawley)","mean level of Total T3 at 1 hour post dose ([1]; Sprague-Dawley, po, 1 h)",also measured
C[C@H](N)C(=O)N[C@@H](C)C(=O)N[C@@H](Cc1cc(I)c(Oc2ccc(O)c(I)c2)c(I)c1)C(=O)O [A2-T3],104.4%,113.4%,2.459 μIU,2.11 μIU,0.889 μIU,0.292 μIU,0.174 μIU,0.182 μIU,0.381 μIU,decreased rapidly,–,–,–,–,–,–,–,–,–,–,–
O=C(O)[C@H](Cc1cc(I)c(Oc2ccc(O)c(I)c2)c(I)c1)NC(=O)[C@@H]1CCCN1C(=O)[C@@H]1CCCN1 [P2-T3],92.3%,97.9%,2.988 μIU,2.438 μIU,1.363 μIU,0.346 μIU,0.21 μIU,0.189 μIU,0.735 μIU,decreased rapidly,decreased variability of T3 absorption,431 ng/mL,–,–,–,–,–,–,–,–,–
"N[C@@H](Cc1cc(I)c(Oc2ccc(O)c(I)c2)c(I)c1)C(=O)O [T3 sodium, 3,3′,5-triiodo-L-thyronine]",–,–,2.193 μIU,2.032 μIU,1.141 μIU,0.243 μIU,0.132 μIU,0.136 μIU,0.270 μIU,decreased rapidly,–,–,100%,100%,100%,100%,100%,100%,100%,577 ng/mL,"Tmax, Low − High ([1]; Sprague-Dawley): 1 − 6; Total T3 Tmax ([1]; Sprague-Dawley, po, 12 ug/kg): 3.2 h; Total T3 Tmax, mean ([1]; Sprague-Dawley, po, 12 ug/kg): 3.2 h; Total T3Δ Tmax, mean ([1]; Sprague-Dawley, po, 12 ug/kg): 3.2 h; Total T3 AUClast, Low − High [1]: 4292 − 6421 ng · h/dL; Total T3 Cmax, Low − High [1]: 484 − 915 ng/dL; Total T3Δ AUClast, Low − High [1]: 3688 − 5526 ng · h/dL; Total T3Δ Cmax, Low − High [1]: 444 − 875 ng/dL; Total T3 AUC ([1]; po, 12 ug/kg): 5171; Individual animal TSH (TSH; 0 h (pre-dose), individual animals 1-6, oral 12 μg/kg T3): 1.840 μIU and 2.296 μIU and 2.088 μIU and 2.480 μIU and 1.884 μIU and 2.572 μIU; Individual animal TSH (TSH; 1 h, individual animals 1-6, oral 12 μg/kg T3): 1.680 μIU and 1.796 μIU and 1.924 μIU and 2.580 μIU and 1.868 μIU and 2.344 μIU; Individual animal TSH (TSH; 2 h, individual animals 1-6, oral 12 μg/kg T3): 1.264 μIU and 1.284 μIU and 0.920 μIU and 1.116 μIU and 1.080 μIU and 1.180 μIU; Individual animal TSH (TSH; 4 h, individual animals 1-6, oral 12 μg/kg T3): 0.240 μIU and 0.252 μIU (2×) and 0.204 μIU and 0.200 μIU and 0.312 μIU; Individual animal TSH (TSH; 6 h, individual animals 1-6, oral 12 μg/kg T3): 0.116 μIU and 0.140 μIU and 0.136 μIU and 0.120 μIU (2×) and 0.160 μIU; Individual animal TSH (TSH; 8 h, individual animals 1-6, oral 12 μg/kg T3): 0.080 μIU and 0.156 μIU and 0.152 μIU and 0.132 μIU and 0.108 μIU and 0.188 μIU; Individual animal TSH (TSH; 12 h, individual animals 1-6, oral 12 μg/kg T3): 0.120 μIU and 0.260 μIU and 0.256 μIU and 0.416 μIU and 0.300 μIU; TSH, mean (TSH; 12 h, mean n=6, oral 12 μg/kg T3, listed as T3): 0.27 μIU"
CC[C@H](C)[C@H](N)C(=O)N[C@@H](Cc1cc(I)c(Oc2ccc(O)c(I)c2)c(I)c1)C(=O)O [I-T3],96.6%,100.8%,2.331 μIU,2.218 μIU,1.203 μIU,0.351 μIU,0.169 μIU,0.131 μIU,0.271 μIU,decreased rapidly,decreased variability of T3 absorption,432.7 ng/mL,–,–,–,–,–,–,–,–,–
"Cl.NCC(=O)NC(Cc1cc(I)c(Oc2ccc(O)c(I)c2)c(I)c1)C(=O)O (centres unmarked) [G-T3, 2-(2-aminoacetoamido)-3-(4-(4-hydroxy-3-iodophenoxy)-3,5-diiodophenyl) propanoic acid, hydrochloride salt]",–,–,2.021 μIU,2.098 μIU,1.289 μIU,0.292 μIU,0.162 μIU,0.151 μIU,0.427 μIU,–,–,–,125%,88.1%,89%,79%,89%,78%,90.9%,327.3 ng/mL,"Variability of T3 absorption compared with T3 sodium ([1]; Sprague-Dawley): decreased variability of T3 absorption; Release / absorption of T3 compared with T3 sodium ([1]; Sprague-Dawley, po): delayed release of T3; Individual animal TSH (TSH; 0 h (pre-dose), individual animals 1-6, oral 12 μg/kg T3, hydrochloride salt): 1.680 μIU and 2.584 μIU and 2.304 μIU and 1.956 μIU and 1.860 μIU and 1.740 μIU; Individual animal TSH (TSH; 1 h, individual animals 1-6, oral 12 μg/kg T3, hydrochloride salt): 2.660 μIU and 2.564 μIU and 2.392 μIU and 1.960 μIU and 1.612 μIU and 1.400 μIU; Individual animal TSH (TSH; 2 h, individual animals 1-6, oral 12 μg/kg T3, hydrochloride salt): 1.340 μIU and 1.472 μIU and 1.648 μIU and 1.160 μIU and 1.104 μIU and 1.008 μIU; Individual animal TSH (TSH; 4 h, individual animals 1-6, oral 12 μg/kg T3, hydrochloride salt): 0.364 μIU and 0.352 μIU and 0.296 μIU and 0.216 μIU and 0.276 μIU and 0.248 μIU; Individual animal TSH (TSH; 6 h, individual animals 1-6, oral 12 μg/kg T3, hydrochloride salt): 0.232 μIU and 0.172 μIU and 0.152 μIU and 0.112 μIU and 0.205 μIU and 0.100 μIU; Individual animal TSH (TSH; 8 h, individual animals 1-6, oral 12 μg/kg T3, hydrochloride salt): 0.232 μIU and 0.172 μIU and 0.136 μIU and 0.124 μIU and 0.168 μIU and 0.076 μIU; Individual animal TSH (TSH; 12 h, individual animals 1-6, oral 12 μg/kg T3, hydrochloride salt): 0.540 μIU and 0.612 μIU and 0.224 μIU and 0.548 μIU and 0.268 μIU and 0.372 μIU; TSH levels in response to administration (TSH; oral 12 μg/kg T3, hydrochloride salt): decreased rapidly"
N[C@@H](Cc1ccccc1)C(=O)N[C@@H](Cc1ccccc1)C(=O)N[C@@H](Cc1cc(I)c(Oc2ccc(O)c(I)c2)c(I)c1)C(=O)O [F2-T3],88.3%,94.7%,3.035 μIU,2.192 μIU,1.364 μIU,0.405 μIU,0.246 μIU,0.242 μIU,0.757 μIU,decreased rapidly,decreased variability of T3 absorption,433.1 ng/mL,–,–,–,–,–,–,–,–,–

# Reference: patent US20070099841A1, “Prodrugs of T3 and T4 with enhanced bioavailability” (New River Pharmaceuticals Inc., priority 2005, published 2007)
